# According to patent US8686150B2 (Sanofi, priority 2011, dated 2014):
# Molecular target: T1, human full-length recombinant PKC βII (Homo sapiens, UniProt P05771)
# T1 construct: Active human full-length recombinant PKC βII; purchased Invitrogen GmbH, Darmstadt, Germany
# Test: Determination of PKC βII inhibition (Caliper mobility-shift kinase assay, Fluorescein-RFARKGSLRQKNV peptide substrate)
# Assay type: biochemical
# Conditions: example compounds at a final concentration of 1.14 μM (±0.15 μM)
# Method: Determination of PKC βII Inhibition
# PKC βII Inhibition was Determined According to the Following Protocol:
# Active human full-length recombinant PKC βII and the peptide substrate, Fluorescein-RFARKGSLRQKNV, were purchased from Invitrogen GmbH, Darmstadt, Germany. Adenosine-5′-triphosphate (ATP), bovine serum albumine (BSA), dimethylsulphoxide (DMSO), 4-(2-hydroxyethyl)piperazine-1-ethanesulfonic acid (Hepes), Triton X-100, 1,2-Dioleoyl-sn-glycerol (DAG), L-G-Phosphatidyl-L-serine (PS), calcium chloride (CaCl2), and Pluronic F-68 were purchased from Sigma-Aldrich, Munich, Germany. Magnesium chloride, 1 M sodium hydroxide solution, 1M hydrochloric acid solution and EDTA were obtained from Merck Biosciences, Darmstadt, Germany.
# Test compounds were diluted to three times the test concentration in buffer 1 (30 mM Hepes-NaOH, pH 7.4, 0.01% Pluronic F-68 and 3% (v/v) DMSO). The PKC enzyme was diluted to a concentration of 30 ng/ml in buffer 2 (30 mM Hepes-NaOH, pH 7.4, 15 mM MgCl2, 150 μM CaCl2, 150 μg/ml PS, 60 μg/ml DAG, and 0.045% (w/v) Triton X-100). The peptide substrate and ATP were diluted to concentrations of 3 μM and 120 μM, respectively, in buffer 2. Two μl of the compound solution were mixed with 2 μl of the diluted enzyme in a 384-well small volume microtiter plate (Greiner, Bio-One, Frickenhausen, Germany), and the kinase reaction was initiated by addition of 2 μl of the solution containing peptide substrate and ATP. After 60 min incubation at 32° C., the reaction was stopped by addition of 20 μl of a solution containing 130 mM Hepes-NaOH, pH 7.4. 0.0195% (v/v) Brij-35, 6.5 mM EDTA. 0.13% chip coating reagent 3 (Caliper Lifescience Inc, Hopkinton, Mass.) and 6.5% (v/v) DMSO. Phosphorylation of the substrate peptide was then detected on a Caliper 3000 instrument essentially as described by Pommereau et al (J. Biomol. Screening 2004, 9(5), 409-416). Separation conditions were as follows: Pressure −0.8 psi, upstream voltage −3000 V, downstream voltage −800 V. Positive controls (buffer 1 instead of compound) and negative controls (buffer 1 instead of compound and buffer 2 instead of kinase solution) were run in parallel on each plate. Fractional turnover (R) was determined as the height of the peak of the phosphorylated peptide product divided by the sum of the unphosphorylated substrate and phosphorylated product peak heights. Percent-inhibition values for the test compounds were determined using the formula % Inhibition=100*(1−(Rcompound−Rnegative control)/(Rpositive control−Rnegative control).
# In the following table % inhibition values observed with example compounds at a final concentration of 1.14 μM (±0.15 μM) are listed: […]
# T1 sequence (P05771 1-673 isoform P05771-2): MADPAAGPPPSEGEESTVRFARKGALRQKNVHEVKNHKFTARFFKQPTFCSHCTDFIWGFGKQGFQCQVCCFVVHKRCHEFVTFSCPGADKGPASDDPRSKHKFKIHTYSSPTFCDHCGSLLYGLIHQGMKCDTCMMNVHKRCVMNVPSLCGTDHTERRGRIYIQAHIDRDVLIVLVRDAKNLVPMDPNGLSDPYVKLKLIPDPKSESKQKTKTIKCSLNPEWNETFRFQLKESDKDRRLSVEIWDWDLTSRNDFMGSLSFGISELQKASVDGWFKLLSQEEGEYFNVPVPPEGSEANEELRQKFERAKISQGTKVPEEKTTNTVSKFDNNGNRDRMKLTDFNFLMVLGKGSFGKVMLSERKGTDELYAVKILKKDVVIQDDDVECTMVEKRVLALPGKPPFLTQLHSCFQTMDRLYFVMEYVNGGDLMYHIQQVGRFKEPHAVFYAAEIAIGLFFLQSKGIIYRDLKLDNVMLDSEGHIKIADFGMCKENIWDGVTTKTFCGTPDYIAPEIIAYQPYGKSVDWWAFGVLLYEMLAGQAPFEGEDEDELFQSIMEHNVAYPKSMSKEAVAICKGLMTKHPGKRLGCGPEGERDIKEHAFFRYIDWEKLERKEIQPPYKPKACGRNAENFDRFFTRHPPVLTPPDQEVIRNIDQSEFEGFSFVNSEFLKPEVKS
row,SMILES,inhibition at 1.14 µM
1,"Cc1n[nH]c2nc(-c3ccc(O)cc3)cc(C(=O)N3CCNC[C@H]3C)c12 [Example 23, [6-(4-Hydroxy-phenyl)-3-methyl-1H-pyrazolo[3,4-b]pyridin-4-yl]-((R)-2-methyl-piperazin-1-yl)-methanone]",95%
2,"Cc1n[nH]c2nc(-c3ccc(O)cc3)cc(C(=O)N3CCNCC3c3ccc4c(c3)OCO4)c12 (stereo not shown) [Example 32, (2-Benzo[1,3]dioxol-5-yl-piperazin-yl)-[6-(4-hydroxy-phenyl)-3-methyl-1H-pyrazolo[3,4-b]pyridin-4-yl]-methanone]",98%
3,"Cc1n[nH]c2nc(-c3ccc(O)cc3)cc(C(=O)N3CC(C(C)(C)N)C3)c12 [Example 33, [3-(1-Amino-1-methyl-ethyl)-azetidin-1-yl]-[6-(4-hydroxy-phenyl)-3-methyl-1H-pyrazolo[3,4-b]pyridin-4-yl]-methanone]",91%
4,"Cc1n[nH]c2nc(-c3ccc(O)cc3)cc(C(=O)NCCN3CCCC3)c12 [Example 35, 6-(4-Hydroxy-phenyl)-3-methyl-1H-pyrazolo[3,4-b]pyridine-4-carboxylic acid (2-pyrrolidin-1-yl-ethyl)-amide]",52%
5,"Cc1n[nH]c2nc(-c3ccc(O)cc3)cc(C(=O)N3CCN(C(C)C)CC3)c12 [Example 36, [6-(4-Hydroxy-phenyl)-3-methyl-1H-pyrazolo[3,4-b]pyridin-4-yl]-(4-isopropyl-piperazin-1-yl)-methanone]",40%
6,"Cc1n[nH]c2nc(-c3ccc(O)cc3)cc(C(=O)N3CCN(C)CC3)c12 [Example 37, [6-(4-Hydroxy-phenyl)-3-methyl-1H-pyrazolo[3,4-b]pyridin-4-yl]-(4-methyl-piperazin-1-yl)-methanone]",53%
7,"Cc1n[nH]c2nc(-c3ccc(O)cc3)cc(C(=O)NCCN(C)C)c12 [Example 38, 6-(4-Hydroxy-phenyl)-3-methyl-1H-pyrazolo[3,4-b]pyridine-4-carboxylic acid (2-dimethylamino-ethyl)-amide]",80%
8,"Cc1n[nH]c2nc(-c3ccc(O)cc3)cc(C(=O)N3CCN(C4CCC4)CC3)c12 [Example 39, (4-Cyclobutyl-piperazin-1-yl)-[6-(4-hydroxy-phenyl)-3-methyl-1H-pyrazolo[3,4-b]pyridin-4-yl]-methanone]",45%
9,"Cc1n[nH]c2nc(-c3ccc(O)cc3)cc(C(=O)N(C)CCNC(C)(C)C)c12 [Example 40, 6-(4-Hydroxy-phenyl)-3-methyl-1H-pyrazolo[3,4-b]pyridine-4-carboxylic acid (2-tert-butylamino-ethyl)-methyl-amide]",38%
10,"Cc1n[nH]c2nc(-c3ccc(O)cc3)cc(C(=O)NC3(C)CCNCC3)c12 [Example 41, 6-(4-Hydroxy-phenyl)-3-methyl-1H-pyrazolo[3,4-b]pyridine-4-carboxylic acid (4-methyl-piperidin-4-yl)-amide]",95%
11,"Cc1n[nH]c2nc(-c3ccc(O)cc3)cc(C(=O)NC3CNCC3C)c12 (stereo not shown) [Example 43, 6-(4-Hydroxy-phenyl)-3-methyl-1H-pyrazolo[3,4-b]pyridine-4-carboxylic acid (4-methyl-pyrrolidin-3-yl)-amide]",81%
12,"CCOC1CNCC1NC(=O)c1cc(-c2ccc(O)cc2)nc2[nH]nc(C)c12 (stereo not shown) [Example 44, 6-(4-Hydroxy-phenyl)-3-methyl-1H-pyrazolo[3,4-b]pyridine-4-carboxylic acid (4-ethoxy-pyrrolidin-3-yl)-amide]",83%
13,"CCCC1(N)CCN(C(=O)c2cc(-c3ccc(O)cc3)nc3[nH]nc(C)c23)CC1 [Example 46, (4-Amino-4-propyl-piperidin-1-yl)-[6-(4-hydroxy-phenyl)-3-methyl-1H-pyrazolo[3,4-b]pyridin-4-yl]-methanone]",76%
14,"CCCC1(N)CCN(C(=O)c2cc(-c3ccc(O)cc3)nc3[nH]nc(C)c23)C1 (stereo not shown) [Example 47, (3-Amino-3-propyl-pyrrolidin-1-yl)-[6-(4-hydroxy-phenyl)-3-methyl-1H-pyrazolo[3,4-b]pyridin-4-yl]-methanone]",70%
15,"CCCC1(N)CCCN(C(=O)c2cc(-c3ccc(O)cc3)nc3[nH]nc(C)c23)C1 (stereo not shown) [Example 48, (3-Amino-3-propyl-piperidin-1-yl)-[6-(4-hydroxy-phenyl)-3-methyl-1H-pyrazolo[3,4-b]pyridin-4-yl]-methanone]",70%
16,"CCC1(NC(=O)c2cc(-c3ccc(O)cc3)nc3[nH]nc(C)c23)CCNCC1 [Example 49, 6-(4-Hydroxy-phenyl)-3-methyl-1H-pyrazolo[3,4-b]pyridine-4-carboxylic acid (4-ethyl-piperidin-4-yl)-amide]",97%

# The next lines start with the values.
row,inhibition at 1.14 µM,SMILES
1,63%,"Cc1n[nH]c2nc(-c3ccc(O)cc3)cc(C(=O)N(CCc3ccccc3)[C@@H]3CCCNC3)c12 [Example 22, 6-(4-Hydroxy-phenyl)-3-methyl-1H-pyrazolo[3,4-b]pyridine-4-carboxylic acid phenethyl-(R)-piperidin-3-yl-amide]"
2,95%,"Cc1n[nH]c2nc(-c3ccc(O)cc3)cc(C(=O)N3C[C@@H](C)N[C@@H](C)C3)c12 [Example 24, ((3R,5S)-3,5-Dimethyl-piperazin-1-yl)-[6-(4-hydroxy-phenyl)-3-methyl-1H-pyrazolo[3,4-b]pyridin-4-yl]-methanone]"
3,89%,"Cc1n[nH]c2nc(-c3ccc(O)cc3)cc(C(=O)N3CCNC(c4ccccc4)C3)c12 (stereo not shown) [Example 25, [6-(4-Hydroxy-phenyl)-3-methyl-1H-pyrazolo[3,4-b]pyridin-4-yl]-(3-phenyl-piperazin-1-yl)-methanone]"
4,97%,"Cc1n[nH]c2nc(-c3ccc(O)cc3)cc(C(=O)N3CCNCC3c3ccccc3)c12 (stereo not shown) [Example 26, [6-(4-Hydroxy-phenyl)-3-methyl-1H-pyrazolo[3,4-b]pyridin-4-yl]-(2-phenyl-piperazin-1-yl)-methanone]"
5,95%,"Cc1n[nH]c2nc(-c3ccc(O)cc3)cc(C(=O)N3CCNC[C@@H]3c3ccccc3)c12 [Example 27, [6-(4-Hydroxy-phenyl)-3-methyl-1H-pyrazolo[3,4-b]pyridin-4-yl]-((S)-2-phenyl-piperazin-1-yl)-methanone]"
6,99%,"Cc1n[nH]c2nc(-c3ccc(O)cc3)cc(C(=O)N3CCNC[C@H]3c3ccccc3)c12 [Example 28, [6-(4-Hydroxy-phenyl)-3-methyl-1H-pyrazolo[3,4-b]pyridin-4-yl]-((R)-2-phenyl-piperazin-1-yl)-methanone]"
7,99%,"Cc1n[nH]c2nc(-c3ccc(O)cc3)cc(C(=O)N3CCNCC3c3ccc(Cl)c(Cl)c3)c12 (stereo not shown) [Example 29, [2-(3,4-Dichloro-phenyl)-piperazin-1-yl]-[6-(4-hydroxy-phenyl)-3-methyl-1H-pyrazolo[3,4-b]pyridin-4-yl]-methanone]"
8,96%,"Cc1n[nH]c2nc(-c3ccc(O)cc3)cc(C(=O)N3CCNCC3c3ccco3)c12 (stereo not shown) [Example 30, (2-Furan-2-yl-piperazin-1-yl)-[6-(4-hydroxy-phenyl)-3-methyl-1H-pyrazolo[3,4-b]pyridin-4-yl]-methanone]"
9,99%,"Cc1n[nH]c2nc(-c3ccc(O)cc3)cc(C(=O)N3CCNCC3c3cccs3)c12 (stereo not shown) [Example 31, [6-(4-Hydroxy-phenyl)-3-methyl-1H-pyrazolo[3,4-b]pyridin-4-yl]-(2-thiophen-2-yl-piperazin-1-yl)-methanone]"
10,69%,"Cc1n[nH]c2nc(-c3ccc(O)cc3)cc(C(=O)N3CCC(CN)(c4ccccc4)CC3)c12 [Example 34, (4-Aminomethyl-4-phenyl-piperidin-1-yl)-[6-(4-hydroxy-phenyl)-3-methyl-1H-pyrazolo[3,4-b]pyridin-4-yl]-methanone]"
11,72%,"Cc1n[nH]c2nc(-c3ccc(O)cc3)cc(C(=O)N3CCNCC34Cc3ccccc3C4)c12 [Example 42, (1,3-Dihydro-spiro[indene-2,2′-piperazin]-1′-yl)-[6-(4-hydroxy-phenyl)-3-methyl-1H-pyrazolo[3,4-b]pyridin-4-yl]-methanone]"
12,84%,"Cc1n[nH]c2nc(-c3ccc(O)cc3)cc(C(=O)NC3CNCC3c3ccccc3)c12 (stereo not shown) [Example 45, 6-(4-Hydroxy-phenyl)-3-methyl-1H-pyrazolo[3,4-b]pyridine-4-carboxylic acid (4-phenyl-pyrrolidin-3-yl)-amide]"
